Experimental data reported in ChEMBL document CHEMBL3286108, “Novel arylsulfonamide derivatives with 5-HT₆/5-HT₇ receptor antagonism targeting behavioral and psychological symptoms of dementia” (J Med Chem, 2014).
Activity calls are given as the source filed them. The rule behind the calls is not given here.

Columns and labels:
[1] = target: T1, 5-hydroxytryptamine receptor 7 (Homo sapiens, UniProt P34969); assay: biochemical; assay type: cell-based, CHO-K1
[2] = target: T2, 5-hydroxytryptamine receptor 2A (Homo sapiens, UniProt P28223); assay: biochemical; assay type: cell-based, CHO-K1
[3] = target: T3, Muscarinic acetylcholine receptor M1 (Homo sapiens) (UniProt P11229); assay: Displacement of [3H]pirenzepine from human recombinant M1 receptor expressed in CHO cells at 1 uM; assay type: cell-based
T3 sequence (whole entry): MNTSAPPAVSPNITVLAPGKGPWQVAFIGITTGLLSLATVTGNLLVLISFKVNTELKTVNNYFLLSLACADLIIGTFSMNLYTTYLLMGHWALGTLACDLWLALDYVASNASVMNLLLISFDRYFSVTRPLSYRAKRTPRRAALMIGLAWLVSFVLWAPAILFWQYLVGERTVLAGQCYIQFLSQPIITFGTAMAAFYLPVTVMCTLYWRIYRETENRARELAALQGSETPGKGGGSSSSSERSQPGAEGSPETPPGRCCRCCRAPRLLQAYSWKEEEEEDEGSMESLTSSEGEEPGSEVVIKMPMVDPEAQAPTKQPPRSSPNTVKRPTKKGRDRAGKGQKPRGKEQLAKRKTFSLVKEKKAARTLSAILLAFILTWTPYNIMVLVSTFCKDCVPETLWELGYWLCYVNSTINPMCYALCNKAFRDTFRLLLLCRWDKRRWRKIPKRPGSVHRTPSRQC

[4] = target: T4, 5-hydroxytryptamine receptor 6 (Homo sapiens, UniProt P50406); assay: Antagonist activity at human recombinant 5-HT6 receptor expressed in CHO-K1 cells assessed as inhibition of serotonin-induced response treated 15 to 30 mins before agonist challenge by luminescence analysis; assay type: cell-based
[5] = target: T1, 5-hydroxytryptamine receptor 7; assay: Antagonist activity at human 5-HT7 receptor expressed in CHO-K1 cells assessed as inhibition of serotonin-induced cAMP accumulation after 60 mins by TR-FRET immunoassay; assay type: functional, cell-based
[6] = target: T2, 5-hydroxytryptamine receptor 2A; assay: Antagonist activity at human recombinant 5-HT2A receptor expressed in CHO-K1 cells assessed as inhibition of alpha-methyl serotonin-induced response treated 15 to 30 mins before agonist challenge by luminescence analysis; assay type: cell-based
[7] = target: T4, 5-hydroxytryptamine receptor 6; assay: Agonist activity at human recombinant 5-HT6 receptor expressed in CHO-K1 cells by luminescence analysis; assay type: cell-based
[8] = target: T1, 5-hydroxytryptamine receptor 7; assay: Agonist activity at human 5-HT7 receptor expressed in CHO-K1 cells assessed as cAMP accumulation after 60 mins by TR-FRET immunoassay; assay type: functional, cell-based
[9] = target: T2, 5-hydroxytryptamine receptor 2A; assay: Agonist activity at human recombinant 5-HT2A receptor expressed in CHO-K1 cells by luminescence analysis; assay type: cell-based
D(2) dopamine receptor [10] = target: T5, D(2) dopamine receptor (Homo sapiens, UniProt P14416); assay: Agonist activity at human recombinant D2 receptor expressed in CHO-K1 cells by luminescence analysis; assay type: cell-based
[11] = target: hERG (KCNH2) potassium channel (Homo sapiens, UniProt Q12809); assay: in vitro; details: CHO cells expressing human cloned ERG
[12] = target: T4, 5-hydroxytryptamine receptor 6; assay: biochemical
D(2) dopamine receptor [13] = target: T5, D(2) dopamine receptor; assay: biochemical

T5 sequence (P14416 whole entry): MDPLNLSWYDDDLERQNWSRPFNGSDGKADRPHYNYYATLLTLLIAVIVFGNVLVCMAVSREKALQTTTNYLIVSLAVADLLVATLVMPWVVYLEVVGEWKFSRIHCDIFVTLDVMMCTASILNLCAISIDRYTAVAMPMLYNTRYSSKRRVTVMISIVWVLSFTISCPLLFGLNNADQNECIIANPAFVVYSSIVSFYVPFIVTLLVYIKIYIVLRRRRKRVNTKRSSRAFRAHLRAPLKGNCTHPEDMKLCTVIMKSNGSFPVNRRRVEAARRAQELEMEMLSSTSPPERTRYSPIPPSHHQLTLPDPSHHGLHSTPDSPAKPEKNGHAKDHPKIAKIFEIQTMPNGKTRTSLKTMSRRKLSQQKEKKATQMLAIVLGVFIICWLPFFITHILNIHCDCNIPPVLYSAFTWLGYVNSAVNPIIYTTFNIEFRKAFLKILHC
T2 sequence (P28223 whole entry): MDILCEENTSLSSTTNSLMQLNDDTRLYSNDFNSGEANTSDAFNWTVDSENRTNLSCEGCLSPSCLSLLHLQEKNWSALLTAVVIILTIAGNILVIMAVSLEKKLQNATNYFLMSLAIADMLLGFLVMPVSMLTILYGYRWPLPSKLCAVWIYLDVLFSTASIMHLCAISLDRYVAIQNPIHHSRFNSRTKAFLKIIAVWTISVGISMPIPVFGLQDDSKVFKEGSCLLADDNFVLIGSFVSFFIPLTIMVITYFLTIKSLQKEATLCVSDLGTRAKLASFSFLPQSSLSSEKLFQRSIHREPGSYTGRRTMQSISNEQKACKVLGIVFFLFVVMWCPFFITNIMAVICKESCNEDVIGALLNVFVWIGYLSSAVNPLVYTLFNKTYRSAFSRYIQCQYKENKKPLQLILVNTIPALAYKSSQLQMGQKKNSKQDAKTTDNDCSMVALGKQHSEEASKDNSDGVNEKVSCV
T1 sequence (P34969 whole entry): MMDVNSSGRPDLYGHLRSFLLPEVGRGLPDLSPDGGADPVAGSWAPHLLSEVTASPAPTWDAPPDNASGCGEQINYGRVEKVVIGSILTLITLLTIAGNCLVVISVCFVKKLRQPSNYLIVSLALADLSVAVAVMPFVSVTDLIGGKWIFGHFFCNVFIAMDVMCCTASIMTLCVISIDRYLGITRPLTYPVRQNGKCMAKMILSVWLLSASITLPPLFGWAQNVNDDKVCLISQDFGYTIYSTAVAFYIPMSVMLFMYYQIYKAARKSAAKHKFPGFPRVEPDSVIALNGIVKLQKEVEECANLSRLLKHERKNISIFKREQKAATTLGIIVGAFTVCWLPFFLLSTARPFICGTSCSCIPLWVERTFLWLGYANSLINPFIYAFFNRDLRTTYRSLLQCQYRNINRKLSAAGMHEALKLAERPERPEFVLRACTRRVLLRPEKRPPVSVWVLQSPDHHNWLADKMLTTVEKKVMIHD
Sequence of hERG (KCNH2) potassium channel (Q12809 whole entry): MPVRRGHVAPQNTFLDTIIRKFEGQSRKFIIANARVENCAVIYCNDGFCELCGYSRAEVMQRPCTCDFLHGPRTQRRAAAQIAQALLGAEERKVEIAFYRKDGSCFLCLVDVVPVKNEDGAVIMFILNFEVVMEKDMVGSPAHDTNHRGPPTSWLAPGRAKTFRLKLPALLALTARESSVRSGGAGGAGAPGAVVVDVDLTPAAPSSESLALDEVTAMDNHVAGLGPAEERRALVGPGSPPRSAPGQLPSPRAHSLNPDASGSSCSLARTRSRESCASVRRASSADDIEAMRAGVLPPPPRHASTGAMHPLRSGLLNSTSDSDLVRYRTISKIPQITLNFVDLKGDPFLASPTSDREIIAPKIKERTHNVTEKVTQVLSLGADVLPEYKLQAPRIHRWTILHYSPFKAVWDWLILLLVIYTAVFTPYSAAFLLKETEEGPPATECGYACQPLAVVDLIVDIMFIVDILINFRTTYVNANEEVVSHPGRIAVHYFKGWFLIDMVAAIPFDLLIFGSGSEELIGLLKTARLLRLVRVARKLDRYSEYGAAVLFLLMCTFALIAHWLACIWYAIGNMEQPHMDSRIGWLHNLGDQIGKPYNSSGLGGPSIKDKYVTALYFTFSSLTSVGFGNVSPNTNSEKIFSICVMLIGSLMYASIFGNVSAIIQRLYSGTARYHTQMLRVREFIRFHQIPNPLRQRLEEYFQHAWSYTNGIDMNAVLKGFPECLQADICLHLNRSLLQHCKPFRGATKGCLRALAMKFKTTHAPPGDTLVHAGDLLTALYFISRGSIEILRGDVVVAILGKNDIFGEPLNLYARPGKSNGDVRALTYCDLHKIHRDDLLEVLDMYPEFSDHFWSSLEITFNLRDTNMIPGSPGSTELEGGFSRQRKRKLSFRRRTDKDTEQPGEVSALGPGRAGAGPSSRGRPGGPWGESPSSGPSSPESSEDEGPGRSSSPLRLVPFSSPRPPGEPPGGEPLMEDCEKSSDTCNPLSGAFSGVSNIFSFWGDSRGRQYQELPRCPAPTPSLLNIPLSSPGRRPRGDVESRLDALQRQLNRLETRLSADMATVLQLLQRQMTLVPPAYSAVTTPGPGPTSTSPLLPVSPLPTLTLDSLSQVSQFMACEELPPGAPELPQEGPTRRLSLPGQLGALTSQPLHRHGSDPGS
T4 sequence (P50406 whole entry): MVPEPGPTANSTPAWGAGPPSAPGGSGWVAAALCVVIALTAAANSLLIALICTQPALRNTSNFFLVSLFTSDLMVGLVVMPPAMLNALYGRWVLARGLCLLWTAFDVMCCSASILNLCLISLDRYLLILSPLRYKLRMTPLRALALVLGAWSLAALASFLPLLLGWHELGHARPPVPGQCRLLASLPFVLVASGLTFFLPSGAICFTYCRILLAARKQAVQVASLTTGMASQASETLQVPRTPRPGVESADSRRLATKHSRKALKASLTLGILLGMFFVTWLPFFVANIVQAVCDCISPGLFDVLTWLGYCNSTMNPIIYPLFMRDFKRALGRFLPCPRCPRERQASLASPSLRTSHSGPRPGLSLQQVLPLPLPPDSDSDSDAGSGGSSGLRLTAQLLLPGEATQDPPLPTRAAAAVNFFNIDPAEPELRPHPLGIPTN

Compound	Ki [1]	Ki [2]	inhibition [3]	Kb [4]	Kb [5]	Kb [6]	Activity [7]	Activity [8]	Activity [9]	Activity (D(2) dopamine receptor [10])	inhibition at 1 µM [11]	Ki [12]	Ki (D(2) dopamine receptor [13])
O=S(=O)(NCCCCN1CCN(c2nsc3ccccc23)CC1)c1ccc2ccccc2c1	1.8 nM	1.5 nM	-5%	7.6 nM	44 nM	110 nM	inactive	inactive	inactive	inactive	14%	5 nM	0.9 nM
O=S(=O)(NCCCCN1CCC(c2noc3cc(F)ccc23)CC1)c1ccc2cc(Cl)ccc2c1	3.2 nM	0.6 nM	–	8.3 nM	1 nM	6.5 nM	inactive	inactive	inactive	inactive	–	2.4 nM	1 nM
Cc1c(S(=O)(=O)NCCCCN2CCC(c3noc4cc(F)ccc34)CC2)sc2ccc(Cl)cc12	0.7 nM	1 nM	19%	22 nM	5.6 nM	9.5 nM	inactive	inactive	inactive	inactive	0%	1.8 nM	1.5 nM
O=S(=O)(NCCCN1CCC(c2noc3cc(F)ccc23)CC1)c1ccc(Cl)c(Cl)c1	1.2 nM	2.2 nM	-3%	12 nM	2.1 nM	23 nM	inactive	inactive	inactive	inactive	69%	7.1 nM	14 nM
O=S(=O)(NCCCCN1CCN(c2nsc3ccccc23)CC1)c1cc2ccc(Cl)cc2s1	9 nM	6.5 nM	2%	–	–	–	–	–	–	–	5%	45 nM	45 nM
O=S(=O)(NCCCCN1CCC(c2noc3cc(F)ccc23)CC1)c1csc2ccccc12	4.3 nM	5.7 nM	5%	–	–	–	–	–	–	–	46%	13 nM	22 nM
O=S(=O)(NCCCN1CCN(c2nsc3ccccc23)CC1)c1cccc2scnc12	2 nM	8.4 nM	0%	–	–	–	–	–	–	–	16%	27 nM	27 nM
O=S(=O)(NCCCCN1CCC(c2noc3cc(F)ccc23)CC1)c1ccc(Cl)c(Cl)c1	5.1 nM	4.9 nM	27%	–	–	–	–	–	–	–	82%	26 nM	15 nM
O=S(=O)(NCCCCN1CCN(c2nsc3ccccc23)CC1)c1ccc(Cl)c(Cl)c1	6.9 nM	12 nM	7%	–	–	–	–	–	–	–	45%	71 nM	27 nM
Cc1c(S(=O)(=O)NCCCN2CCC(c3noc4cc(F)ccc34)CC2)sc2ccc(F)cc12	10 nM	2.3 nM	2%	–	–	–	–	–	–	–	43%	25 nM	8 nM
Cc1c(S(=O)(=O)NCCCN2CCN(c3nsc4ccccc34)CC2)sc2ccc(F)cc12	25 nM	14 nM	-8%	–	–	–	–	–	–	–	3%	120 nM	8.3 nM
Cc1cccc(S(=O)(=O)NCCCCN2CCN(c3noc4ccccc34)CC2)c1	1.1 nM	26 nM	-3%	–	–	–	–	–	–	–	27%	87 nM	44 nM
O=S(=O)(NCCCCN1CCN(c2nsc3ccccc23)CC1)c1cc2ccccc2s1	9.9 nM	6 nM	0%	–	–	–	–	–	–	–	11%	33 nM	15 nM
Cc1c(S(=O)(=O)NCCCCN2CCN(c3noc4ccccc34)CC2)sc2ccc(F)cc12	2.6 nM	7.4 nM	-4%	–	–	–	–	–	–	–	29%	17 nM	46 nM
O=S(=O)(NCCCN1CCN(c2noc3ccccc23)CC1)c1ccc(Cl)c(Cl)c1	34 nM	290 nM	0%	–	–	–	–	–	–	–	27%	1100 nM	> 10000 nM
O=S(=O)(NCCCCN1CCN(c2noc3ccccc23)CC1)c1cccs1	67 nM	2700 nM	3%	–	–	–	–	–	–	–	39%	5200 nM	5.3 nM

Compound	Ki [1]	Ki [2]	inhibition [3]	Kb [4]	Kb [5]	Kb [6]	Activity [7]	Activity [8]	Activity [9]	Activity (D(2) dopamine receptor [10])	inhibition at 1 µM [11]	Ki [12]	Ki (D(2) dopamine receptor [13])
O=S(=O)(NCCCN1CCN(c2noc3ccccc23)CC1)c1cc2ccc(Cl)cc2s1	900 nM	63 nM	6%	–	–	–	–	–	–	–	7%	560 nM	30 nM
O=S(=O)(NCCCCN1CCN(c2noc3ccccc23)CC1)c1cnc2ccccn12	5.9 nM	13 nM	0%	–	–	–	–	–	–	–	13%	95 nM	100 nM
O=S(=O)(NCCCN1CCC(c2noc3cc(F)ccc23)CC1)c1cccc2scnc12	1.3 nM	9.1 nM	1%	–	–	–	–	–	–	–	51%	23 nM	> 1000 nM
O=S(=O)(NCCCN1CCN(c2noc3ccccc23)CC1)c1ccc2cc(Cl)ccc2c1	2500 nM	> 10000 nM	3%	–	–	–	–	–	–	–	14%	2300 nM	> 10000 nM
Cc1cccc(S(=O)(=O)NCCN2CCC(c3noc4cc(F)ccc34)CC2)c1	1.1 nM	3.5 nM	0%	–	–	–	–	–	–	–	42%	210 nM	20 nM
O=S(=O)(NCCCCN1CCN(c2noc3ccccc23)CC1)c1cc2ccc(Cl)cc2s1	5.1 nM	11 nM	-1%	–	–	–	–	–	–	–	15%	46 nM	54 nM
O=S(=O)(NCCCCN1CCC(c2noc3cc(F)ccc23)CC1)c1ccc(OC(F)(F)F)cc1	15 nM	3.6 nM	-6%	–	–	–	–	–	–	–	73%	23 nM	64 nM
Cc1cccc(S(=O)(=O)NCCCCN2CCN(c3nsc4ccccc34)CC2)c1	1.6 nM	0.4 nM	-4%	–	–	–	–	–	–	–	17%	100 nM	8.7 nM
O=S(=O)(NCCCCN1CCN(c2noc3ccccc23)CC1)c1cc2ccccc2s1	180 nM	190 nM	2%	–	–	–	–	–	–	–	14%	1100 nM	1300 nM
O=S(=O)(NCCCN1CCN(c2nsc3ccccc23)CC1)c1ccc2cc(Cl)ccc2c1	38 nM	13 nM	-7%	–	–	–	–	–	–	–	7%	100 nM	6 nM
O=S(=O)(NCCCN1CCN(c2noc3ccccc23)CC1)c1ccc(OC(F)(F)F)cc1	380 nM	950 nM	3%	–	–	–	–	–	–	–	10%	2200 nM	63 nM
O=S(=O)(NCCCN1CCC(c2noc3cc(F)ccc23)CC1)c1csc2ccccc12	0.9 nM	1.6 nM	-2%	–	–	–	–	–	–	–	25%	13 nM	36 nM
O=S(=O)(NCCCN1CCC(c2noc3cc(F)ccc23)CC1)c1ccc2ccccc2c1	0.8 nM	2.8 nM	-7%	–	–	–	–	–	–	–	63%	32 nM	1 nM
O=S(=O)(NCCN1CCC(c2noc3cc(F)ccc23)CC1)c1ccc2ccccc2c1	0.4 nM	1.8 nM	-2%	–	–	–	–	–	–	–	21%	133 nM	5.2 nM
O=S(=O)(NCCCCN1CCN(c2nsc3ccccc23)CC1)c1cccs1	3.2 nM	5.5 nM	1%	–	–	–	–	–	–	–	40%	42 nM	3.2 nM
